In patent US9845297B2, “Antimicrobial compounds and methods of making and using the same” (Melinta Therapeutics, Inc., priority 2009, dated 2017):

Tested on: Eschericia coli strain ATCC25922
Assay: standard microdilution assay to determine minimum inhibitory concentrations (MICs)
Assay type: cell-based
Conditions: Escherichia coli, ATCC25922, Eschericia coli strain ATCC25922, standard microdilution assay; read-out: E. coli ATCC25922 MIC
Method in brief: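 Broth microdilution per CLSI protocols, typically 100 µL final volume, against E. coli ATCC25922. MIC values scored as +/− against a cutoff of 16 micrograms/ml.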

MIC [µg/mL]	Structure (SMILES)
> 16	NCCCN(CCCOC(=O)Nc1ccccc1OC(F)(F)F)Cc1ccc(-c2c[nH]c(NC(=O)Nc3ccccc3OC(F)(F)F)nc2=O)cc1 [Compound 305]
> 16	NCCCN(CCCC(=O)O)Cc1ccc(-c2c[nH]c(NC(=O)Nc3cc(F)c(F)cc3F)nc2=O)cc1 [Compound 358]
< 16	CN1CCN(c2ccc(NC(=O)Nc3nc(=O)c(-c4ccc(CN(CCCN)CCCN)cc4)c[nH]3)cc2)CC1 [Compound 191]
> 16	N=C(Nc1ccccc1)Nc1nc(=O)c(-c2ccc(CNCCCN)c(F)c2)c[nH]1 [Compound 573]
> 16	N=C(N)NCCCNCc1ccc(-c2c[nH]c(NC(=O)NCCc3ccccc3OC(F)(F)F)nc2=O)cc1F [Compound 513]
< 16	N=C(N)NCCCNCc1ccc(-c2c[nH]c(NC(=O)Nc3cccc(Cl)c3F)nc2=O)cn1 [Compound 593]
> 16	N[C@H]1CCN(CCc2c[nH]c(NC(=O)Nc3ccccc3OC(F)(F)F)nc2=O)C1 [Compound 381]
> 16	Cn1ncc(C(=O)Nc2nc(=O)c(-c3ccc(CN(CCCN)CCCN)cc3)c[nH]2)c1Cl [Compound 174]
> 16	CC(C)=CCNCc1ccc(-c2c[nH]c(NC(=O)Nc3cc(F)c(F)cc3F)nc2=O)cc1 [Compound 317]
> 16	NCCCN(CCCN)Cc1ccc(-n2cc(F)c(N)nc2=O)cc1 [Compound 143]
> 16	N=C(N)NCCCNCc1ccc(-c2c[nH]c(NC(=O)NCCCc3ccccc3OC(F)(F)F)nc2=O)cc1F [Compound 540]
> 16	NC(=O)NCCCNCc1ccc(-c2c[nH]c(NC(=O)Nc3cc(F)c(F)cc3F)nc2=O)cc1 [Compound 395]
> 16	CN(C(=O)C[C@H](CCCNC(=N)N)NC(=O)CCN)C1CNC(NC(N)=O)=NC1=O (some centres unmarked) [Compound 103]
> 16	NCCCNCc1ccc(-n2ccc(N)nc2=O)cc1 [Compound 132]
> 16	N=C(N)NCCCCCN1CCN(c2c[nH]c(NC(=O)Nc3ccccc3OC(F)(F)F)nc2=O)CC1 [Compound 519]
> 16	O=C(Nc1nc(=O)c(CC(=O)N2CCNCC2)c[nH]1)Nc1ccccc1OC(F)(F)F [Compound 409]
> 16	O=C(Nc1nc(=O)c(-c2ccc(CNCCC3CC3)cc2)c[nH]1)Nc1ccccc1OC(F)(F)F [Compound 441]
< 16	CN(C)CCN1CCN(c2ccc(NC(=O)Nc3nc(=O)c(-c4ccc(CN(CCCN)CCCN)cc4)c[nH]3)cc2)CC1 [Compound 210]
< 16	CN1CCN(c2ccc(NC(=O)Nc3ccn(-c4ccc(CN(CCCN)CCCNC(=N)N)cc4)c(=O)n3)cc2)CC1 [Compound 222]
> 16	NCCCN1CCC(c2c[nH]c(NC(=O)Nc3ccccc3OC(F)(F)F)nc2=O)CC1 [Compound 455]
> 16	NCCCN(Cc1ccc(-c2c[nH]c(NC(=O)Nc3ccccc3OC(F)(F)F)nc2=O)cc1)Cc1ncc[nH]1 [Compound 326]
< 16	NCCCNCc1ccc(-c2c[nH]c(NC(=O)Nc3ccccc3OC(F)(F)F)nc2=O)cc1F [Compound 246]
> 16	Cn1ccnc1CNCc1ccc(-c2c[nH]c(NC(=O)Nc3cc(F)c(F)cc3F)nc2=O)cc1 [Compound 299]
> 16	O=C(Nc1nc(=O)c(-c2ccc(CNCCCO)cc2)c[nH]1)Nc1cc(F)c(F)cc1F [Compound 276]
> 16	NC[C@@H](N)C(=O)Nc1ccc(-c2c[nH]c(NC(N)=O)cc2=O)cc1 [Compound 162]

MIC [µg/mL]	Structure (SMILES)
< 16	NCCCNCc1ccc(-c2c[nH]c(NC(=O)Nc3cc(Cl)ccc3Cl)nc2=O)cc1F [Compound 480]
> 16	NCCCCCN1CCC(c2c[nH]c(Nc3nc4ccccc4[nH]3)nc2=O)CC1 [Compound 499]
> 16	N#CCCCN(CCCN)Cc1ccc(-c2c[nH]c(NC(=O)Nc3ccccc3OC(F)(F)F)nc2=O)cc1 [Compound 398]
> 16	N=C(N)NCCCCNC1CCN(c2c[nH]c(NC(=O)Nc3ccccc3OC(F)(F)F)nc2=O)CC1 [Compound 605]
> 16	N=C(N)NCCCN(CCCN)Cc1ccc(-c2c[nH]c(NC(=O)Nc3cc(F)c(F)cc3F)nc2=O)cc1 [Compound 348]
> 16	NCCCNCc1ccc(-c2c[nH]c(NC(=O)Nc3cc(F)c(F)cc3F)nc2=O)cc1 [Compound 239]
< 16	NCCCNCc1ccc(-c2c[nH]c(NC(=O)Nc3cc(F)c(F)cc3F)nc2=O)cc1C(F)(F)F [Compound 266]
> 16	NCCCNCc1ccc(-c2c[nH]c(NC(=O)Nc3cccc([N+](=O)[O-])c3)nc2=O)cc1F [Compound 485]
< 16	CC(N)(CO)C(=O)Nc1ccc(C(=O)Nc2ccn(CCC[C@H](CCCNC(=N)N)NCCCN)c(=O)n2)cc1 (some centres unmarked) [Compound 199]
> 16	NCCCN1CCC[C@H](NC(=O)Nc2nc(=O)c(-c3ccc(CN)cc3)c[nH]2)C1 [Compound 1303]
> 16	NCCCN(CCCN)Cc1ccc(-n2ccc(NC(N)=O)nc2=O)cc1 [Compound 145]
> 16	Nc1ccn(CCC[C@@H](N)CCCOCc2ccccc2)c(=O)n1 [Compound 119]
> 16	NCCCNCc1ccc(-c2c[nH]c(NC(=O)NCCc3nc4ccccc4[nH]3)nc2=O)cc1F [Compound 555]
> 16	Cn1nnc2cc(C(=O)Nc3ccn(CCC[C@H](CCCNC(=N)N)NCCCN)c(=O)n3)ccc21 [Compound 157]
> 16	NCCCNCc1ccc(-c2c[nH]c(Nc3ccc(C(F)(F)F)cc3)nc2=O)cc1F [Compound 488]
> 16	CCOc1ccc(NC(=O)Nc2nc(=O)c(-c3ccc(CNCCCN)c(F)c3)c[nH]2)c([N+](=O)[O-])c1 [Compound 414]
< 16	CN(C(=O)C[C@@H](N)CCCNC(=N)N)C1CNC(NC(=O)c2ccc(NC(=O)[C@@](C)(N)CO)cc2)=NC1=O (some centres unmarked) [Compound 110]
> 16	NCCCN[C@@H]1CCN(CCc2c[nH]c(NC(=O)Nc3cccc(Cl)c3Cl)nc2=O)C1 [Compound 385]
< 16	NCCCNCc1ccc(-c2c[nH]c(NC(=O)Nc3cccc(Cl)c3Cl)nc2=O)cc1F [Compound 252]
> 16	NCc1ccc(-n2ccc(NC(=O)NC3CCCNC3)nc2=O)cc1 (centres unmarked) [Compound 1305]
> 16	N=C(N)NCCCCN1CCC(c2c[nH]c(NC(=O)Nc3ccccc3OC(F)(F)F)nc2=O)CC1 [Compound 548]
> 16	NCCCNCc1c(F)cc(-c2c[nH]c(NC(=O)Nc3cccc(Cl)c3Cl)nc2=O)cc1F [Compound 286]
< 16	NCCCN(CCCN)Cc1ccc(-c2c[nH]c(Nc3nc4ccccc4[nH]3)nc2=O)cc1F [Compound 351]
< 16	NCCCN(CCCCO)Cc1ccc(-c2c[nH]c(NC(=O)Nc3ccccc3OC(F)(F)F)nc2=O)cc1 [Compound 355]
> 16	O=C(O)CCNCc1ccc(-c2c[nH]c(NC(=O)Nc3cc(F)c(F)cc3F)nc2=O)cc1 [Compound 315]

MIC [µg/mL]	Structure (SMILES)
< 16	NCCCNCc1ccc(-c2c[nH]c(NC(=O)Nc3ccc(Cl)cc3F)nc2=O)cc1F [Compound 436]
< 16	CN(C)CCN1CCN(c2ccc(NC(=O)Nc3ccn(CCCC(CCCNC(=N)N)NCCCN)c(=O)n3)cc2)CC1 (centres unmarked) [Compound 208]
> 16	NCCCNCc1ccc(-c2c[nH]c(NC(=O)Nc3ccc([N+](=O)[O-])cc3Cl)nc2=O)cc1F [Compound 494]
> 16	N=C(N)NCCCCCN1CCN(c2c[nH]c(NC(=O)Nc3cc(F)c(F)cc3F)nc2=O)CC1 [Compound 505]
> 16	NCCCN(CCCN)Cc1ccc(-c2c[nH]c(Nc3nc4ccccc4[nH]3)nc2=O)cc1 [Compound 473]
< 16	NCCCNCc1ccc(-c2c[nH]c(NC(=O)Nc3cccc(Cl)c3Cl)nc2=O)c(F)c1 [Compound 433]
> 16	NCCCCN1CCC(c2c[nH]c(NC(=O)Nc3cc(F)c(F)cc3F)nc2=O)CC1 [Compound 535]
> 16	COc1ccc(C(=O)Nc2ccn(CCCC(CCCNC(=N)N)NCCCN)c(=O)n2)cc1 (centres unmarked) [Compound 177]
< 16	NCCCN(Cc1ccncc1)Cc1ccc(-c2c[nH]c(NC(=O)Nc3cc(F)c(F)cc3F)nc2=O)cc1 [Compound 337]
> 16	CCN[C@@H]1CCCCC1NC(=O)Nc1nc(=O)c(-c2ccc(CN)cc2)c[nH]1 (some centres unmarked) [Compound 1302]
> 16	CSCCCNCc1ccc(-c2c[nH]c(NC(=O)Nc3cc(F)c(F)cc3F)nc2=O)cc1 [Compound 281]
> 16	N=C(N)NCCCC[C@H](CCn1ccc(NC(N)=O)nc1=O)NCCCN [Compound 125]
> 16	NCCCNCc1ccc(-c2c[nH]c(NC(=O)Nc3cc(N)ccc3Cl)nc2=O)cc1F [Compound 483]
> 16	CN(C(=O)C[C@H](CCCNC(=N)N)NC(=O)CCNC(=N)N)C1CNC(NC(N)=O)=NC1=O (some centres unmarked) [Compound 107]
> 16	COc1nc(NC(=O)NCCc2nc3ccccc3o2)ncc1-c1ccc(CNCCCN)c(F)c1 [Compound 526]
> 16	O=C(Nc1nc(=O)c(-c2ccc(CNCCc3ccncc3)cc2)c[nH]1)Nc1ccccc1OC(F)(F)F [Compound 323]
< 16	NCCCNCc1ccc(-c2c[nH]c(NC(=O)Nc3ccc(OC(F)(F)F)cc3)nc2=O)cc1F [Compound 249]
> 16	N=C(N)NCCC[C@@H](CCCn1ccc(NC(=O)Nc2cc(F)c(F)cc2F)nc1=O)NCCCN [Compound 164]
> 16	N=C(N)NCCCN1CCCC(c2c[nH]c(NC(=O)Nc3ccccc3OC(F)(F)F)nc2=O)CC1 (centres unmarked) [Compound 517]
> 16	N=C(N)NCCCNCc1ccc(-c2c[nH]c(NC(=O)NC3CCN(Cc4cc(F)c(F)cc4F)C3)nc2=O)cc1 (centres unmarked) [Compound 735]
< 16	NCCCNCc1ccc(-c2c[nH]c(NC(=O)Nc3ccccc3OC(F)(F)F)nc2=O)cc1 [Compound 278]
> 16	N=C(N)NCCCN(CCCN)Cc1ccc(-c2c[nH]c(NC(=O)NCCc3ccc(Cl)c(Cl)c3)nc2=O)cc1 [Compound 478]
< 16	N=C(N)NCCCNCc1ccc(-c2c[nH]c(NC(=O)Nc3cc(F)c(F)cc3F)nc2=O)cc1 [Compound 350]
> 16	NCCCN(CCc1ccncc1)Cc1ccc(-c2c[nH]c(NC(=O)Nc3ccccc3OC(F)(F)F)nc2=O)cc1 [Compound 347]
